The results in this text go back to patent US4533665A, “[[Bis(aryl)methylene]-1-piperidinyl]alkyl-pyrimidinones” (Janssen Pharmaceutica, priority 1984, dated 1985).

Molecules are shown by their SMILES.

This assay has as its target T1, S2-receptor (Rattus norvegicus, UniProt P14842).
T1 construct: Caudal arteries from fasted male rats; from tissue; host or cells: rat caudal artery, helical strips
Put plainly: antagonistic activity on the effect of serotonin on the caudal artery of the rat (caudal artery test). The conditions noted are these: rat caudal artery strips; serotonin 40 ng/ml; 5 minutes after adding the drug; read-out: ED50 (minimal concentration which reduces the amplitude of the serotonin-induced contraction to at least 50% of its normal value) (converted). The method, then: ANTAGONISTIC ACTIVITY ON THE EFFECT OF SEROTONIN ON THE CAUDAL ARTERY OF THE RAT
Caudal arteries from fasted male rats (210-235 g) were used in the test. […] Submaximal contractions of the arterial strips were produced by adding single doses of serotonin (40 ng/ml) to the organ bath for 2 minutes with each time an interval of 10 minutes. The amplitude of the contraction was measured before and 5 minutes after adding the drug. After washing out, the agonist was added again three times in order to see whether the contraction was restored and normalized. […] In this connection the ED50 -values are the minimal concentrations of the concerned drugs which reduce the amplitude of the contraction to at least 50% of its normal value.

T1 sequence (P14842 whole entry): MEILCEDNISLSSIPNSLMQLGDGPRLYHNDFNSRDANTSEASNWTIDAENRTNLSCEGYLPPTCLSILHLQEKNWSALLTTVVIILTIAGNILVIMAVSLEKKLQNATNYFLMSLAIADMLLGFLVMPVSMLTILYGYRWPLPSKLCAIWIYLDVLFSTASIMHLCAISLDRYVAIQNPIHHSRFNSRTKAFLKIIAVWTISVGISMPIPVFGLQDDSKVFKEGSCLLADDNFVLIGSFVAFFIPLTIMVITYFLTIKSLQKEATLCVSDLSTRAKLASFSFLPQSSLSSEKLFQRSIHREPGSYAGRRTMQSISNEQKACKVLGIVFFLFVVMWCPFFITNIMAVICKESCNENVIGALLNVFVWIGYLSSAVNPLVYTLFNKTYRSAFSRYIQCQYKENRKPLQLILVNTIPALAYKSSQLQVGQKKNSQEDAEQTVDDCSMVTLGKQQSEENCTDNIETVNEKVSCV

Take `Cc1nc2ccccn2c(=O)c1CCN1CCC(=C(c2ccc(F)cc2)c2ccc(F)cc2)CC1` [Compound 2]: the IC50 was 2.76 pM.

As for `Cc1nc2n(c(=O)c1CCN1CCC(=C(c3ccc(F)cc3)c3ccc(F)cc3)CC1)CCCC2` [Compound 3], the IC50 is 1.18 pM. With `Cc1nc2sccn2c(=O)c1CCN1CCC(=C(c2ccccc2)c2ccccc2)CC1` [Compound 4], the IC50 was 0.362 pM. Next, `Cc1nc2n(c(=O)c1CCN1CCC(=C(c3ccc(F)cc3)c3cccc(Cl)c3)CC1)CCS2` [Compound 5]: 0.323 pM; `Cc1nc2sccn2c(=O)c1CCN1CCC(=C(c2ccc(F)cc2)c2cccc(Cl)c2)CC1` [Compound 6]: 1.28 pM. As for `Cc1nc2scc(C)n2c(=O)c1CCN1CCC(=C(c2ccc(F)cc2)c2cccc(Cl)c2)CC1` [Compound 7], the figure is 1.24 pM; as for `Cc1nc2sccn2c(=O)c1CCN1CCC(=C(c2ccc(F)cc2)c2ccc(Cl)cc2)CC1` [Compound 9], below 1.28 pM.

In the case of `Cc1nc2n(c(=O)c1CCN1CCC(=C(c3ccc(F)cc3)c3ccc(Cl)cc3)CC1)CCCC2` [Compound 11], the IC50 was 2.54 pM. Next, `Cc1nc2ccccn2c(=O)c1CCN1CCC(=C(c2ccc(F)cc2)c2ccc(Cl)cc2)CC1` [Compound 13]: 2.56 pM; `Cc1cccc(C(=C2CCN(CCc3c(C)nc4sccn4c3=O)CC2)c2ccc(F)cc2)c1` [Compound 14]: 1.33 pM.

Consider `Cc1cccc(C(=C2CCN(CCc3c(C)nc4ccccn4c3=O)CC2)c2ccc(F)cc2)c1` [Compound 15], for which the IC50 was 1.35 pM. With `Cc1nc2ccccn2c(=O)c1CCN1CCC(=C(c2ccc(F)cc2)c2cccc(Cl)c2)CC1` [Compound 16], the IC50 was 1.29 pM. On to `Cc1nc2ccccn2c(=O)c1CCN1CCC(=C(c2ccccc2)c2ccccc2)CC1` [Compound 18], for which the IC50 is below 1.45 pM. `Cc1nc2ccccn2c(=O)c1CCN1CCC(=C(c2ccc(O)cc2)c2ccc(F)cc2)CC1` [Compound 20]: the IC50 is 2.66 pM. Consider `Cc1nc2sccn2c(=O)c1CCN1CCC(=C(c2ccc(F)cc2)c2cccc(C(F)(F)F)c2)CC1` [Compound 21], for which the IC50 was 1.19 pM. Consider `Cc1nc2n(c(=O)c1CCN1CCC(=C(c3ccc(F)cc3)c3ccc(Cl)cc3)CC1)CCS2` [Compound 22], for which the IC50 was 2.62 pM.

For `Cc1nc2scc(C)n2c(=O)c1CCN1CCC(=C(c2ccc(O)cc2)c2ccc(F)cc2)CC1` [Compound 23, 6-[2-[4-[(4-fluorophenyl)-(4-hydroxyphenyl)methylene]-1-piperidinyl]ethyl]-3,7-dimethyl-5H-thiazolo[3,2-a]pyrimidin-5-one], the IC50 was 1.14 pM. `Cc1nc2sccn2c(=O)c1CCN1CCC(=C(c2ccc(O)cc2)c2ccc(F)cc2)CC1` [Compound 24]: the IC50 was 0.378 pM.

Consider `Cc1nc2sccn2c(=O)c1CCN1CCC(=C(c2ccc(F)cc2)c2cccc(F)c2)CC1` [Compound 25], for which the IC50 was 0.293 pM. In the case of `Cc1ccc(C(=C2CCN(CCc3c(C)nc4sccn4c3=O)CC2)c2ccc(C)cc2)cc1` [Compound 26], the IC50 is 1.19 pM. Regarding `Cc1nc2scc(C)n2c(=O)c1CCN1CCC(=C(c2ccc(F)cc2)c2cccc(F)c2)CC1` [Compound 27], the IC50 was 0.651 pM. Regarding `Cc1nc2n(c(=O)c1CCN1CCC(=C(c3ccc(F)cc3)c3cccc(F)c3)CC1)CCS2` [Compound 28], the IC50 is 1.17 pM. As to `Cc1nc2n(c(=O)c1CCN1CCC(=C(c3ccc(F)cc3)c3ccc(F)cc3)CC1)CCCS2` [Compound 29], the IC50 was 0.648 pM. For the molecule `Cc1nc2n(c(=O)c1CCN1CCC(=C(c3ccc(F)cc3)c3cccc(F)c3)CC1)CCCC2` [Compound 30], the IC50 is 1.18 pM.

As for `Cc1nc2ccccn2c(=O)c1CCN1CCC(=C(c2ccc(F)cc2)c2cccc(C(F)(F)F)c2)CC1` [Compound 31], the IC50 is 4.79 pM. As for `Cc1nc2scc(C)n2c(=O)c1CCN1CCC(=C(c2ccc(F)cc2)c2ccc(Br)cc2)CC1` [Compound 32], the figure is 2.35 pM; as for `Cc1nc2n(c(=O)c1CCN1CCC(=C(c3ccc(F)cc3)c3ccc(Br)cc3)CC1)CCCS2` [Compound 33], 5.05 pM.
